According to ChEMBL document CHEMBL6103655, “Structure and Synthesis of Amatyemides A and B, Cyclic Octadepsipeptides from South African Stromatolites” (2025):
The source made the active and inactive calls. No cut-off for these calls is given here.

What was measured:
U-87 MG [1] = experiment: Induction of oxidative stress in human U-87 MG cells assessed as reduction in GLuc expression at 3 to 6 uM incubated for 18 hrs in the presence of NAC; format: functional, cell-based; conditions: U-87MG ATCC, dose 3-6 µM
U-87 MG [2] = experiment: Induction of oxidative stress in human U-87 MG cells cultured with GLuc assessed as change in cell viability at 3 to 6 uM incubated for 18 hrs by CellTiter-Glo luminescent assay; format: functional, cell-based; conditions: U-87MG ATCC, dose 3-6 µM
U-87 MG [3] = experiment: Induction of oxidative stress in human U-87 MG cells assessed as reduction in GLuc expression at 3 to 6 uM incubated for 18 hrs; format: functional, cell-based; conditions: U-87MG ATCC, dose 3-6 µM
Acinetobacter baumannii = experiment: Antimicrobial activity against Acinetobacter baumannii ATCC BAA-1605 at 0.14 mg/mL in broth medium incubated for 14 to 16 hrs by Synergy4 plate reader analysis; format: functional, organism-based; conditions: time 14-16 hrs
Candida albicans = experiment: Antimicrobial activity against Candida albicans ATCC MYA-574 at 0.14 mg/mL in broth medium incubated for 14 to 16 hrs by Synergy4 plate reader analysis; format: functional, organism-based; conditions: time 14-16 hrs
SH-SY5Y = experiment: Cytotoxicity against human SH-SY5Y cells assessed as reduction in cell viability at 10 uM incubated for 72 hrs by CellTiter-Glo assay; format: functional
Cryptococcus neoformans = experiment: Antimicrobial activity against Cryptococcus neoformans var. grubii ATCC 90112 at 0.14 mg/mL in broth medium incubated for 14 to 16 hrs by Synergy4 plate reader analysis; format: functional, organism-based; conditions: time 14-16 hrs
Klebsiella pneumoniae = experiment: Antimicrobial activity against Klebsiella pneumoniae ATCC BAA-2344 at 0.14 mg/mL in broth medium incubated for 14 to 16 hrs by Synergy4 plate reader analysis; format: functional, organism-based; conditions: time 14-16 hrs
Pseudomonas aeruginosa = experiment: Antimicrobial activity against Pseudomonas aeruginosa ATCC […] at 0.14 mg/mL in broth medium incubated for 14 to 16 hrs by Synergy4 plate reader analysis; format: functional, organism-based; conditions: time 14-16 hrs
HCT-116 = experiment: Cytotoxicity against human HCT-116 cells incubated for 72 hrs by CellTiter-Glo assay; format: functional
Escherichia coli = experiment: Antimicrobial activity against Escherichia coli ATCC BAA-2523 at 0.14 mg/mL in broth medium incubated for 14 to 16 hrs by Synergy4 plate reader analysis; format: functional, organism-based; conditions: time 14-16 hrs
Staphylococcus aureus = experiment: Antimicrobial activity against Staphylococcus aureus subsp. aureus ATCC 700698 at 0.14 mg/mL in broth medium incubated for 14 to 16 hrs by Synergy4 plate reader analysis; format: functional, organism-based; conditions: time 14-16 hrs
Enterococcus faecium = experiment: Antimicrobial activity against Enterococcus faecium ATCC BAA-2317 at 0.14 mg/mL in broth medium incubated for 14 to 16 hrs by Synergy4 plate reader analysis; format: functional, organism-based; conditions: time 14-16 hrs

| SMILES | Activity (U-87 MG [1]) | Activity (U-87 MG [2]) | Activity (U-87 MG [3]) | Activity (Acinetobacter baumannii) | Activity (Candida albicans) | Activity (SH-SY5Y) | Activity (Cryptococcus neoformans) | Activity (Klebsiella pneumoniae) | Activity (Pseudomonas aeruginosa) | CC50 (HCT-116) [nM] | Activity (Escherichia coli) | Activity (Staphylococcus aureus) | Activity (Enterococcus faecium) |
| --- | --- | --- | --- | --- | --- | --- | --- | --- | --- | --- | --- | --- | --- |
| CCCCCCCC[C@H]1OC(=O)[C@H](CC(C)C)N(C)C(=O)[C@H](C(C)C)NC(=O)[C@@H](Cc2ccccc2)NC(=O)[C@H]([C@@H](C)CC)OC(=O)[C@H]([C@@H](C)OC)NC(=O)[C@H](C)NC(=O)[C@H](CC(C)C)NC1=O (stereo in doubt; 2a) [listing 1 of 2 here] | inactive | – | – | – | – | – | – | – | – | – | – | – | – |
| CCCCCCCCCC[C@H]1OC(=O)[C@H](CC(C)C)N(C)C(=O)[C@H](C(C)C)NC(=O)[C@@H](Cc2ccccc2)NC(=O)[C@H]([C@@H](C)CC)OC(=O)[C@H]([C@@H](C)OC)NC(=O)[C@H](C)NC(=O)[C@H](CC(C)C)NC1=O | inactive | inactive | inactive | inactive | inactive | inactive | inactive | inactive | inactive | 3290 | inactive | inactive | inactive |
| COc1ccc(C[C@H](NC(=O)/C(C)=C/[C@H]2CSC([C@@H](C)[C@@H](O)C[C@H](C)C[C@H](O)C(C)(C)C)=N2)C(=O)N(C)[C@@H](C)C(=O)N(C)[C@@H]2C(=O)N3CCC[C@H]3C(=O)OC(C)[C@@H]2C)cc1 (some centres undefined) | Active | – | – | – | – | – | – | – | – | – | – | – | – |
| CCCCCCCC[C@H]1OC(=O)[C@H](CC(C)C)N(C)C(=O)[C@H](C(C)C)NC(=O)[C@@H](Cc2ccccc2)NC(=O)[C@H]([C@@H](C)CC)OC(=O)[C@H]([C@@H](C)OC)NC(=O)[C@H](C)NC(=O)[C@H](CC(C)C)NC1=O (stereo in doubt; 2) | inactive | inactive | Active | inactive | inactive | – | inactive | inactive | inactive | – | inactive | inactive | inactive |
| CCCCCCCC[C@H]1OC(=O)[C@H](CC(C)C)N(C)C(=O)[C@H](C(C)C)NC(=O)[C@@H](Cc2ccccc2)NC(=O)[C@H]([C@@H](C)CC)OC(=O)[C@H]([C@@H](C)OC)NC(=O)[C@H](C)NC(=O)[C@H](CC(C)C)NC1=O (stereo in doubt; 2a) [listing 2 of 2 here] | – | – | – | – | – | ~50% | – | – | – | 1750 | – | – | – |
| C=C(C)[C@H]1Cc2c(ccc3c2O[C@@H]2COc4cc(OC)c(OC)cc4[C@@H]2C3=O)O1 | inactive | – | – | – | – | – | – | – | – | – | – | – | – |
